Source: PMC7073229, “Novel Quinoline Compounds Active in Cancer Cells through Coupled DNA Methyltransferase Inhibition and Degradation” (Cancers, 2020)
Structures can show the parent of a compound that is named as a salt.

What was measured:
[1] = target: T1, C-terminal catalytic domain of human DNMT3A (hDNMT3A) (Homo sapiens, UniProt Q9Y6K1); assay: DNMT3A restriction-based fluorescence assay; assay type: biochemical; conditions: mean of at least two independent experiments; read-out: Enzyme Inhibition (EC50 ± SD) hDNMT3A
T1 construct: the C-terminal catalytic domain of human DNMT3A (hDNMT3A)
Protocol: DNMT3A enzyme inhibition was adapted from the restriction-based fluorescence assay protocol described in Ceccaldi et al.. Briefly, a biotin-labelled oligonucleotide at the 5’ end is hybridized to his complementary strand labelled at the 3’ end with 6-carboxyfluorescein. The DNA duplex containing only one single CpG site overlapping with a restriction site of a methylation sensitive restriction enzyme is transferred in the wells coated with avidin. The methylation reaction is performed by adding human C-terminal DNMT3A at the final concentration of 4 ng/µL in a total volume of 50 µL in the presence of the inhibitors at various concentrations and the co-substrate SAM at the final concentration of 20 µM. The plate was incubated for 1 h at 37 °C, washed, and added with the methylation sensitive restriction enzyme HpyCH4IV, incubated for 1 h further at 37 °C, washed and the fluorescence measured with a PerkinElmer Envision Multilabel Plate Reader. The data are expressed as percentage of inhibition vs. log concentration (M). Data are normalized referring to the “restriction control” (wells coated with labelled duplex not treated nor exposed to DNMT3A, but only cleaved by HpyCH4IV) as the maximum of inhibition (100%) and to the “DMSO control” (wells coated with labelled duplex but treated just with 0.1% DMSO exposed to DNMT3A and then to HpyCH4IV) as the minimum of inhibition (0%; total methylation).

U937 AML cells = assay: Antiproliferative activity, MTT; assay type: cell-based; conditions: Homo sapiens, U-937, 48 h treatment, read-out: Antiproliferative Activity (IC50 ± SD) U937
Protocol: (§1) U937 histiocytic lymphoma, HL60 acute promyelocytic leukemia, H1299 lung adenocarcinoma, MCF7 breast carcinoma, HT1080 fibrosarcoma, M14 melanoma, HeLa epithelial cervix carcinoma and peripheral blood B lymphocyte AHH1 human cell lines were obtained from the Deutsche Sammlung für Mikroorganismen and Zellkulturen (DSZM, Braunschweig, Germany) and were maintained in RPMI 1640 medium contained 10% fetal bovine serum (FBS), 2 mM L-glutamine, and antibiotics in a humidified atmosphere with 5% CO2 at 37 °C. HCT116 (ATCC, VA, USA) cells were propagated in Dulbecco’s modified Eagle medium (DMEM) (Euroclone, Milan, Italy) with 10% fetal bovine serum (FBS; Euroclone, Milan, Italy), 2 mM L-glutamine (Euroclone, Milan, Italy), and antibiotics (100 U/mL penicillin, 100 µg/mL streptomycin) (Euroclone, Milan, Italy). The experiments were performed with early (3–20) cell passages. Cell lines were treated with compounds at the indicated concentrations in the exponential growth phase.
(§2) Then, increasing concentrations of different compounds (ranging from 0.01 to 100 μM) were added, and cell proliferation was evaluated by a MTT assay after 48 h. Cells exposed to DMSO were used as control. The effect of compounds was evaluated using the CellTiter-Glo luminescent cell viability assay (Promega, Madison, WI, USA) according to the manufacturer’s instructions. For HCT116, 5 × 10^4 cells/well were plated in 24-well plate and treated, in duplicate, with compounds at several concentrations for 24 and 48 h of induction. After treatments, MTT solution was added for 3 h at 0.5 mg/mL, the obtained crystals were dissolved in DMSO (Sigma-Aldrich, Milan, Italy), and the absorbance was read at a wavelength of 570 nm with reader TECAN M-200. All the experiments were performed in triplicate and repeated at least three times.
(§3) IC50 values of compounds against cellular viability were determined by using nonlinear regression fitting curves with GraphPad Prism 8. The t-test used for statistical analyses was performed with GraphPad Prism 8. All the tests were one-tailed and a p-value < 0.05 was considered statistically significant.

HL60 APL cells = assay: Antiproliferative activity, MTT; assay type: cell-based; conditions: Homo sapiens, HL-60, 48 h treatment, read-out: Antiproliferative Activity (IC50 ± SD) HL60
Protocol: as §1, §2, §3

U937 cells = assay: Sub-G1 peak, cell cycle flow cytometry; assay type: cell-based, human; conditions: U937, 1 µM, 24 and 48 h
Protocol: Cell cycle analysis was performed on 5 × 10^5 fixed cells resuspended in a RNase A (3 mg/mL) and propidium iodide (PI) solution (1 mg/mL). Samples were analyzed with a C6 Accuri BD (Becton Dickinson & Co., San Jose, CA, USA). The percentage of apoptosis was measured analyzing sub-G1 peaks. Apoptotic cell death was also evaluated by using annexin V–fluorescein isothiocyanate (FITC) apoptosis kit (BD Bioscience) and assayed according to the manufacturer’s instructions. Cells double-stained for both annexin V and PI were analyzed by flow cytometry. PI was used in conjunction with annexin V–FITC to distinguish cells in the earlier stages of apoptosis (annexin V-FITC positive, PI negative) from those in later stages of apoptosis or that were already dead (annexin V–FITC positive, PI positive). Percentage of cells positive for caspase-3 activation was evaluated by Active Caspase-3 Apoptosis Kit (BD biosciences, Milan, Italy) according to the manufacturer’s instructions.

[2] = test system: HeLa epithelial cervix carcinoma; assay: Antiproliferative activity, MTT; assay type: cell-based; conditions: Homo sapiens, 48 h treatment, read-out: Antiproliferative Activity (IC50 ± SD) HeLa
Protocol: as §1, §2, §3

[3] = test system: HCT116 human colorectal carcinoma; assay: Antiproliferative activity, MTT; assay type: cell-based; conditions: HCT-116, 48 h treatment, read-out: Antiproliferative Activity (IC50 ± SD) HCT116
Protocol: as §1, §2, §3

M14 human melanoma = assay: Antiproliferative activity, MTT; assay type: cell-based; conditions: 48 h treatment, read-out: Antiproliferative Activity (IC50 ± SD) M14
Protocol: as §1, §2, §3

[4] = test system: H1299 human non-small cell lung carcinoma; assay: Antiproliferative activity, MTT; assay type: cell-based; conditions: Homo sapiens, NCI-H1299, 48 h, 48 h treatment, read-out: Antiproliferative Activity (IC50 ± SD) H1299
Protocol: as §1, §2, §3

[5] = test system: HT1080 human fibrosarcoma; assay: Antiproliferative activity, MTT; assay type: cell-based; conditions: HT-1080, 48 h treatment, read-out: Antiproliferative Activity (IC50 ± SD) HT1080
Protocol: as §1, §2, §3

KRAS21R G-quadruplex DNA = assay: FRET melting assay, G-quadruplex DNA; assay type: binding
Protocol: (§4) Experimental procedure for Fluorescence Resonance Energy Transfer (FRET) melting assay Oligonucleotides labeled at 5’ with FAM (6-carboxyfluorescein) as donor fluorophore and TAMRA (6 - carboxytetramethylrhodamine) at 3’ as the acceptor fluorophore were purchased from STAB VIDA (Portugal). Each oligonucleotide was initial ly diluted to 100 µM in water (Molecular Biology Reagent, Sigma). Stock solutions of 20 µM and subsequent dilutions were made with FRET buffer (60 mM KCl, potassium cacodylate, pH 7.4). Tagged oligonucleotides at 0.4 µM were annealed by heating at 90 -95 °C for 10 min, followed by slow cooling to room temperature. St ock solutions of compounds (1 mM) were prepared in 10% DMSO. Subsequent dilutions were performed using FRET buffer. Annealed DNA (50 µL) and test compound solutions (50 µL) were distributed across 96-well RT-PCR plates (PCR-96-FLT-C, Axygen, Inc). Fluorescence readings (performed in a 7300 RT -PCR equipment from Applied Biosystems) were taken at intervals of 0.5 °C in the range 31 –95 °C, with the temperature being maintained for 30 seconds prior to each reading. Experiments were performed in triplicate. Fina l analysis of the data was carried out with GraphPad Prism v.5.0 (GraphPad Software Inc., La Jolla, CA, USA).
(§5) The advanced curve-fitting function in GraphPad Prism (nonlinear regression fit) was used for calculation of ΔTm values. Only results with fitting r2 values > 0.75 (std error < 0.25) were considered.
(§6) Table S2. Synthetic oligonucleotides used in FRET experiments.

F21T G-quadruplex DNA = assay: FRET melting assay, G-quadruplex DNA; assay type: binding
Protocol: as §4, §5, §6

[6] = test system: luciferase reporter under methylated CMV promoter in KG-1 leukemia cells; assay: CMV-luc assay in KG-1 cells; assay type: cell-based; conditions: KG-1 CMV-luc, vs DMSO
Protocol: The assay was carried out as described by Rilova et al.. The KG-1 cell line was stably transfected with the luciferase firefly (Luc^+ from pGL3 by Promega, Madison, WI, USA) reporter gene under the control of a methylated CMV promoter (from pEGFP-N1 by Clontech) and selected for the maintenance of the methylation of CMV and luciferase expression silencing (KG-1 CMV-luc). The stably integrated KG-1 CMV-luc cells are cultivated in RPMI-1640 medium (Lonza, Strasbourg, France), supplemented with 10% FCS (Lonza, Strasbourg, France) and 0.5 mg/mL of geneticin (Sigma-Aldrich, Saint-Quentin Fallavier, France), under 5% CO2, at 37 °C and seeded at 20,000 cells per well in 96-well plates. After 5 or 24 h of incubation in the presence of compounds or the solvent DMSO, the induction of the promoter is measured by quantification of luciferase with the Brite-lite assay system (PerkinElmer, Villebon-sur-Yvette, France) according to the manufacturer’s protocol. The luminescence is measured on an EnVision Multilabel Plate Reader (PerkinElmer, Villebon-sur-Yvette, France), and the data are expressed as fold induction compared to DMSO control. The mean of 2–4 experiments and its standard error are reported.

[7] = test system: methylated UCHL1 promoter (pUCHL1) in HCT116 cells; assay: UCHL1 promoter demethylation assay (EGFP induction, FACS); assay type: cell-based, human; conditions: HCT116, 5 µM, five days
Protocol: The assay was performed as described in [29]. Briefly, human colon cancer HCT116 (ATCC, VA, USA) cells were grown in Dulbecco’s Modified Eagle Medium (DMEM; Euroclone, Milan, Italy) supplemented with 10% fetal bovine serum (FBS; Euroclone, Milan, Italy), 2 mM L-glutamine (Euroclone), and antibiotics (100 U/mL penicillin, 100 µg/mL streptomycin) (Euroclone). The pUMLIEP vector (composed by MetLuc-IRES-EGFP construct upon the control of the ubiquitin carboxyl-terminal hydrolase L1 (UCHL1)) was linearized and methylated by with ClaI and SssI-methylase enzymes (New England Biolabs, Milan, Italy). After, methylated pUMLIEP was transfected into HCT116 cells following the protocol described in [30]. […] On day 5, cells were observed under by a fluorescent microscope (Cytation 5 Cell Imaging Multi-Mode Reader (BioTeK Milan, Italy) and BD Accuri flow cytometers. Nuclei were counterstained with DAPI (10 µg/mL, Invitrogen, Tournai, Belgium).

T1 sequence (Q9Y6K1 634-912 limits assumed): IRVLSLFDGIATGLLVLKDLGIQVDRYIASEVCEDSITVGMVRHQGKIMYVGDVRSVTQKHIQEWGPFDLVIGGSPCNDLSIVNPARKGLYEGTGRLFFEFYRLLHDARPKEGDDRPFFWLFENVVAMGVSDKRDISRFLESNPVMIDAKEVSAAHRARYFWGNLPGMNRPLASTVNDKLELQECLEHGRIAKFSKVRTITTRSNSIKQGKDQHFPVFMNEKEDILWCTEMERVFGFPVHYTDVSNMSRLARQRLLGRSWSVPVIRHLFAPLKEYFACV

Row | melting point | EC50 [1] | IC50 (U937 AML cells) | IC50 (HL60 APL cells) | Structure (SMILES) | also measured
1 | 183 to 185 °C | – | – | – | Cc1cc(Nc2cccc(CNC(=O)c3cccc(Nc4ccnc5ccccc45)c3)c2)nc(N)n1 (as salt: hydrochloride) [Compound 1c] | –
2 | 153 to 155 °C | 21 ± 3.1 µM | 1.4 ± 0.2 µM | 18.1 ± 2.4 µM | Cc1cc(Nc2cccc(NC(=O)c3cccc(CNc4ccnc5ccccc45)c3)c2)nc(N)n1 [Compound 1a] | –
3 | 163 to 165 °C | 19 ± 2 µM | 37 ± 5.9 µM | 40 ± 5 µM | Cc1cc(Nc2cccc(NC(=O)Cc3cccc(Nc4ccnc5ccccc45)c3)c2)nc(N)n1 [Compound 1b] | –
4 | 260 to 262 °C | 51 ± 10 µM | 67 ± 8.8 µM | 67 ± 7.4 µM | Cc1cc(NCc2cccc(NC(=O)c3cccc(Nc4ccnc5ccccc45)c3)c2)nc(N)n1 [Compound 1d] | –
5 | 227 to 229 °C | 21 ± 4 µM | 4.8 ± 0.6 µM | 9.9 ± 1.1 µM | Cc1cc(Nc2cccc(C(=O)Nc3cccc(Nc4ccnc5ccccc45)c3)c2)nc(N)n1 [Compound 1e] | –
6 | 98 to 100 °C | 12 ± 3 µM | 4.4 ± 0.7 µM | 1.9 ± 0.1 µM | Cc1cc(Nc2cccc(NCc3cccc(Nc4ccnc5ccccc45)c3)c2)nc(N)n1 [Compound 1f] | –
7 | 218 to 220 °C | 41 ± 10 µM | 52.4 ± 7.6 µM | 83 ± 10.2 µM | Cc1cc(Nc2ccc(NC(=O)c3cccc(Nc4cc(C)nc(N)n4)c3)cc2)nc(N)n1 [Compound 3a] | –
8 | 105 to 107 °C | > 100 µM | 123 ± 15 µM | 225 ± 28.5 µM | Cc1cc(Nc2cccc(NC(=O)c3cccc(Nc4cc(C)nc(N)n4)c3)c2)nc(N)n1 [Compound 3b] | –
9 | 292 to 294 °C | 13 ± 0.9 µM | 66 ± 9.2 µM | 125 ± 16.2 µM | Cc1cc(Nc2ccc(C(=O)Nc3cccc(Nc4cc(C)nc(N)n4)c3)cc2)nc(N)n1 [Compound 3c] | –
10 | – | – | – | – | Nc1ncn([C@H]2C[C@H](O)[C@@H](CO)O2)c(=O)n1 [DAC, 5-aza-2′-deoxycytidine, reference compound] | Luciferase Expression (Fold ± SD) ([6]; 0.5 µM): 18.13 ± 5.52 fold; Luciferase Expression (Fold ± SD) ([6]; 1 µM): 19.80 ± 3.88 fold; Luciferase Expression (Fold ± SD) ([6]; 5 µM): 23.82 ± 5.44 fold; Luciferase Expression (Fold ± SD) ([6]; 10 µM): 20.96 ± 4.02 fold; pUCHL1 demethylation, EGFP-positive cells (FACS R1) [7]: 46.6%
11 | – | – | – | – | C[n+]1ccc(-c2c3nc(c(-c4cc[n+](C)cc4)c4ccc([nH]4)c(-c4cc[n+](C)cc4)c4ccc([nH]4)c(-c4cc[n+](C)cc4)c4nc2C=C4)C=C3)cc1 [Py4P, reference compound] | KRAS ∆Tm (KRAS21R G-quadruplex DNA; positive control at 1 µM): 18.8 ºC; F21T ∆Tm (F21T G-quadruplex DNA; positive control at 1 µM): 21.2 ºC

Row | Structure (SMILES) | melting point | EC50 [1] | IC50 (U937 AML cells) | IC50 (HL60 APL cells) | also measured
12 | O=C(Nc1cccc(NC(=O)c2cccc(Nc3ccnc4ccccc34)c2)c1)OCc1ccccc1 [Compound 4b] | – | 13 ± 1.4 µM | 3.2 ± 0.6 µM | 1.9 ± 0.3 µM | effect on sub-G1 peaks vs untreated cells (U937 cells): remarkable increase; IC50 [2]: 65 ± 7.3 µM; IC50 [3]: 20.5 ± 2.8 µM; IC50 (M14 human melanoma): 15.3 ± 2 µM; IC50 [4]: 40 ± 4.8 µM; IC50 [5]: 13.1 ± 1.5 µM; KRAS ∆Tm (KRAS21R G-quadruplex DNA; 5 µM): 2.8 ºC; KRAS ∆Tm (KRAS21R G-quadruplex DNA; 10 µM): 2.5 ºC; F21T ∆Tm (F21T G-quadruplex DNA; 5 µM): 3.8 ºC; F21T ∆Tm (F21T G-quadruplex DNA; 10 µM): 1.5 ºC
